According to article PMC10458698, “Characterization of the interferences of systemic azole antifungal drugs with adrenal steroid biosynthesis using H295R cells and enzyme activity assays” (Current Research in Toxicology, 2023):

Assays:
H295R cells = assay: Steroidogenesis assay in forskolin-stimulated H295R cells, UHPLC-MS/MS; assay type: cell-based, human; conditions: 48 h
Experimental: Briefly, 200,000 cells/mL between passages 5 and 10 were seeded in a 24-well plate. After 24 h, the medium was replaced by fresh medium containing reference or test compounds. […] As a time zero control, complete medium was incubated without cells. After 48 h of incubation, the cell culture supernatant was collected and stored at −20 °C until steroid quantification was performed by ultra-high liquid chromatography tandem mass spectrometry (UHPLC-MS/MS). All experiments were performed three times independently in technical duplicates.
Using water, the sample volume was adapted to 1 mL. Samples were extracted using Oasis HLB 3 cc SPE cartridge (30 mg, 30 μm particle size, Waters, Massachusetts, USA). Columns were preconditioned with 1 mL ethyl acetate and water prior to application of samples. After sample loading, columns were washed three times with 1 mL methanol (10% v/v) and water before samples were eluted applying 0.75 mL ethyl acetate twice. Eluates were evaporated to dryness and reconstituted in 50 µL methanol. Samples were applied to a reverse phase column (Waters Acquity UPLC BEH C18, 1.7 μm, 2.1 mm × 150 mm). […] Applied mobile phases consisted of water, acetonitrile and formic acid (95/5/0.1; v/v/v and 5/95/0.1; v/v/v). For data analysis, Hunter software version B.09.00 (Agilent Technologies) was used. Lower limit of detection (LOD), lower limit of quantification (LLOQ), and upper limit of quantification (ULOQ) are shown in Table 1.

CYP11A1 = target: T1, CYP11A1 (Homo sapiens, UniProt P05108); design: method as in Mast et al., 2013, Vanden Bossche et al., 1986; conditions: in words, ref Mast et al., 2013, Vanden Bossche et al., 1986; cited from earlier work
T1 construct: host or cells: V79-4 cells (Chinese hamster), transient transfection, mitochondrial fraction
T1 sequence (P05108 40-521): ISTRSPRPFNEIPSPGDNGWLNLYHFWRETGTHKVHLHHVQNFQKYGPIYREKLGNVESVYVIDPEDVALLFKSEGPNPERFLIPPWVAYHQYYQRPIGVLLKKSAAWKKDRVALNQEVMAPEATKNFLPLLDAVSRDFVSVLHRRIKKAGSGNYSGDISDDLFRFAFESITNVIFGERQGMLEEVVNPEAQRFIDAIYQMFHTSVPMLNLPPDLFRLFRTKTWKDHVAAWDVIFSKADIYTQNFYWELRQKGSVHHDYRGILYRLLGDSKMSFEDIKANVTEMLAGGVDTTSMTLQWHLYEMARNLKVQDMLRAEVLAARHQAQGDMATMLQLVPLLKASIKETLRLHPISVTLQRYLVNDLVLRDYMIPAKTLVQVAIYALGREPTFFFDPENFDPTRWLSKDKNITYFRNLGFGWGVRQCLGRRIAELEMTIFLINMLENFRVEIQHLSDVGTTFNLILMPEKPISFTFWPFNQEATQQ

[1] = design: method as in Nguyen et al., 2020; conditions: ref Nguyen et al., 2020; cited from earlier work
[2] = 30 nM, 10 μM forskolin, relative to forskolin control

Row | Compound | concentrations that block overall steroidogenesis (H295R cells; forskolin-stimulated) [µM] | effect on the steroid profile (H295R cells; forskolin-stimulated, in words) | product/substrate ratios corticosterone/11-DOC and cortisol/cortexolone (apparent CYP11B1 activity) (H295R cells; forskolin-stimulated, in words) | effect on the steroid profile (H295R cells; forskolin-stimulated, in words, listed as Itraconazole) | CYP11A1 inhibition in earlier studies (CYP11A1) | lower level of the CYP11B2 product aldosterone (H295R cells; [2]) [%] | lower levels of the CYP11B1 products cortisol and corticosterone (H295R cells; [2]) | inhibition of cortisol, corticosterone and aldosterone production (H295R cells; 300 nM and higher concentrations) | product/substrate ratio 17α-hydroxyprogesterone/progesterone (apparent CYP17A1 17α-hydroxylase activity) (H295R cells; forskolin-stimulated, in words) | serum concentration with increased risk of pseudohyperaldosteronism [1] [ng/mL]
1 | C[C@@H](c1nc(-c2ccc(C#N)cc2)cs1)[C@](O)(Cn1cncn1)c1cc(F)ccc1F [isavuconazole] | ≥ 1 | concentration-dependent decrease in all measured steroids | did not indicate an inhibition of CYP11B1 and CYP11B2 | – | – | – | – | – | – | –
2 | CCC(C)n1ncn(-c2ccc(N3CCN(c4ccc(OCC5COC(Cn6cncn6)(c6ccc(Cl)cc6Cl)O5)cc4)CC3)cc2)c1=O (stereo not shown) [itraconazole] | ≥ 1 | lowered the levels of all steroids in a concentration-dependent manner | less potently | inhibited the production of corticosterone and aldosterone and, to a lesser extent, of cortisol in a concentration-dependent manner | no substantial inhibition | – | – | – | – | –
3 | CC[C@@H]([C@H](C)O)n1ncn(-c2ccc(N3CCN(c4ccc(OC[C@@H]5CO[C@@](Cn6cncn6)(c6ccc(F)cc6F)C5)cc4)CC3)cc2)c1=O [posaconazole, Posaconazole] | – | did not affect progesterone and 11-DOC levels | decreased with increasing concentrations | – | moderate CYP11A1 inhibition | ~50 | about 40% | complete inhibition | indicated 17α-hydroxylase inhibition | > 2500
